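The compound was tested at five concentrations on cells cultured in 96-well plates, with a 48-hour exposure period. The concentration for 50% growth inhibition is given as GI50.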 Calls of active or inactive are those of the source. No stated cut-off is given here; in the data, active = GI50 up to about 1.1 µM and inactive = higher.
Assays:
Assay in all cases: DTP human tumour cell line panel, 48 h
HOP-18 = test system: HOP-18
UACC-257 = test system: UACC-257
Malme-3M = test system: Malme-3M
786-0 = test system: 786-0
HOP-62 = test system: HOP-62
MOLT-4 = test system: MOLT-4
SF-295 = test system: SF-295
SF-268 = test system: SF-268
NCI-H226 = test system: NCI-H226
SR = test system: SR
SK-OV-3 = test system: SK-OV-3
SK-MEL-28 = test system: SK-MEL-28
SF-539 = test system: SF-539
DLD-1 = test system: DLD-1
NCI-H460 = test system: NCI-H460
NCI-H522 = test system: NCI-H522
MCF7 = test system: MCF7
T47D = test system: T47D
DU-145 = test system: DU-145
MDA-MB-231 = test system: MDA-MB-231

| SMILES | GI50 (HOP-18) | GI50 (UACC-257) | GI50 (Malme-3M) | GI50 (786-0) | GI50 (HOP-62) | GI50 (MOLT-4) | GI50 (SF-295) | GI50 (SF-268) | GI50 (NCI-H226) | GI50 (SR) | GI50 (SK-OV-3) | GI50 (SK-MEL-28) | GI50 (SF-539) | GI50 (DLD-1) | GI50 (NCI-H460) | GI50 (NCI-H522) | GI50 (MCF7) | GI50 (T47D) | GI50 (DU-145) | GI50 (MDA-MB-231) |
| --- | --- | --- | --- | --- | --- | --- | --- | --- | --- | --- | --- | --- | --- | --- | --- | --- | --- | --- | --- | --- |
| CCCCCCN(CCCCCC)C1=CC(=O)C(=O)c2ccccc21 | 16.1 µM (inactive) | 15.2 µM (inactive) | 21.3 µM (inactive) | 16.7 µM (inactive) | 18.7 µM (inactive) | 18.7 µM (inactive) | 15.7 µM (inactive) | 18.7 µM (inactive) | 17.3 µM (inactive) | 15.8 µM (inactive) | 17.7 µM (inactive) | 17.6 µM (inactive) | 17.2 µM (inactive) | 15.2 µM (inactive) | 17.3 µM (inactive) | 11.6 µM (inactive) |  |  |  |  |
| Cc1nc2nn(C)cc2c(=O)n1/N=C/c1ccccc1 | 73.1 µM (inactive) | > 100 µM (inactive) | > 100 µM (inactive) | > 100 µM (inactive) | > 100 µM (inactive) | > 100 µM (inactive) | > 100 µM (inactive) | > 100 µM (inactive) | > 100 µM (inactive) | > 100 µM (inactive) | > 100 µM (inactive) | > 100 µM (inactive) | > 100 µM (inactive) | > 100 µM (inactive) | > 100 µM (inactive) | > 100 µM (inactive) |  |  |  |  |
| CN(C)c1ccc(/C=N\N2C(=O)c3ccccc3C2=O)cc1 | > 100 µM (inactive) | > 100 µM (inactive) | > 100 µM (inactive) | > 100 µM (inactive) | > 100 µM (inactive) | > 100 µM (inactive) | > 100 µM (inactive) | > 100 µM (inactive) | > 100 µM (inactive) | > 100 µM (inactive) |  | > 100 µM (inactive) | > 100 µM (inactive) | > 100 µM (inactive) | > 100 µM (inactive) |  |  |  |  |  |
| N#Cc1c(-c2ccc(Cl)cc2)c(-c2ccc(Cl)cc2)nn(CCOC(=O)CCC(=O)O)c1=O | 29.2 µM (inactive) | 9.64 µM (inactive) | 1.02 µM (active) | 0.755 µM (active) | 0.64 µM (active) | 0.566 µM (active) | 0.522 µM (active) | 0.809 µM (active) | 0.258 µM (active) | 0.291 µM (active) | 0.778 µM (active) | 5.47 µM (inactive) | 0.421 µM (active) | 4.13 µM (inactive) | 0.807 µM (active) | 0.51 µM (active) | 165 nM (active) | > 32.3 µM (inactive) | 615 nM (active) | 2.65 µM (inactive) |
| COc1cc(C2C3=C(COC3=O)Oc3cc4c(cc32)OCO4)cc(OC)c1OC (stereo not drawn) | 0.16 µM (active) | 0.0673 µM (active) | 0.0828 µM (active) | 0.0333 µM (active) | < 0.0255 µM (active) | 0.024 µM (active) | 0.0109 µM (active) | 0.0417 µM (active) | 0.123 µM (active) | 0.0424 µM (active) | < 0.0144 µM (active) | 0.00771 µM (active) | 0.0218 µM (active) | 0.022 µM (active) | 0.0216 µM (active) | 0.001 µM (active) | 42.3 nM (active) | > 10 µM (inactive) | 25.6 nM (active) | 0.0667 µM (active) |
| CCOC(=O)/C(C(=O)c1ccccc1)=C1/NCCN1C | > 100 µM (inactive) | > 100 µM (inactive) | > 100 µM (inactive) | > 100 µM (inactive) | > 100 µM (inactive) | > 100 µM (inactive) | > 100 µM (inactive) | > 100 µM (inactive) | > 100 µM (inactive) | > 100 µM (inactive) |  | > 100 µM (inactive) | 10 µM (inactive) | > 100 µM (inactive) | > 100 µM (inactive) | > 100 µM (inactive) |  |  |  |  |
| N#C/C(=C/c1ccsc1)C(=O)c1ccccc1 | > 100 µM (inactive) | > 100 µM (inactive) | > 100 µM (inactive) | > 100 µM (inactive) | > 100 µM (inactive) | > 100 µM (inactive) | > 100 µM (inactive) | > 100 µM (inactive) | > 100 µM (inactive) | > 100 µM (inactive) | > 100 µM (inactive) | > 100 µM (inactive) | > 100 µM (inactive) | > 100 µM (inactive) | > 100 µM (inactive) | > 100 µM (inactive) |  |  |  |  |
| O=C(O)c1cc2c3ccccc3nc-2c[nH]1 | > 100 µM (inactive) | > 100 µM (inactive) | > 100 µM (inactive) | > 100 µM (inactive) | > 100 µM (inactive) | > 100 µM (inactive) | > 100 µM (inactive) | > 100 µM (inactive) | > 100 µM (inactive) | > 100 µM (inactive) | > 100 µM (inactive) | > 100 µM (inactive) | > 100 µM (inactive) | > 100 µM (inactive) | > 100 µM (inactive) | > 100 µM (inactive) |  |  |  |  |
| CCOc1ccc(Nc2nc(C)c(C(=O)/C=C/c3ccc(Cl)cc3Cl)s2)cc1 | 26.3 µM (inactive) | 24.6 µM (inactive) | 26.3 µM (inactive) | 19.5 µM (inactive) | 31.3 µM (inactive) | 23 µM (inactive) | 20 µM (inactive) | 24.7 µM (inactive) | 18.2 µM (inactive) | 28.6 µM (inactive) | 28.6 µM (inactive) | 22.7 µM (inactive) | 27.8 µM (inactive) | 26.5 µM (inactive) | 21.4 µM (inactive) | 21.1 µM (inactive) |  |  |  |  |
| COC(=O)C1=Cc2cn(S(=O)(=O)c3ccc(C)cc3)c3cccc(c23)C(C=C(C)C)N1C(C)=O (stereo not drawn) | 38.5 µM (inactive) | 11.3 µM (inactive) | 16.8 µM (inactive) | > 100 µM (inactive) | > 100 µM (inactive) | 3.1 µM (inactive) | 6.11 µM (inactive) | 93.5 µM (inactive) | > 100 µM (inactive) | 12.4 µM (inactive) | > 100 µM (inactive) | > 10 µM (inactive) | > 100 µM (inactive) | 14.7 µM (inactive) |  | 5.83 µM (inactive) |  |  |  |  |
| COC(=O)C1=C(C(=O)OC)C2(C(=O)OC)OC1(OC)C(C1(C(=O)OC)C(C(=O)OC)=C1C(=O)OC)=C2C(=O)OC (stereo not drawn) | > 100 µM (inactive) | > 100 µM (inactive) | > 100 µM (inactive) | > 100 µM (inactive) | > 100 µM (inactive) | > 100 µM (inactive) | > 100 µM (inactive) | > 100 µM (inactive) | > 100 µM (inactive) | > 100 µM (inactive) | > 100 µM (inactive) | > 100 µM (inactive) | > 100 µM (inactive) | > 100 µM (inactive) | > 100 µM (inactive) | > 100 µM (inactive) |  |  |  |  |
| Cc1c(C)n(COCCO)c2ncnc(N)c12 | > 100 µM (inactive) |  |  | > 100 µM (inactive) |  | > 100 µM (inactive) | > 100 µM (inactive) | > 100 µM (inactive) | > 100 µM (inactive) | > 100 µM (inactive) | > 100 µM (inactive) | > 100 µM (inactive) | > 100 µM (inactive) | > 100 µM (inactive) | > 100 µM (inactive) | > 100 µM (inactive) |  |  |  |  |
| Nc1ccn(CCCC(c2ccccc2)P(=O)(O)O)c(=O)n1 (stereo not drawn) | > 100 µM (inactive) | > 100 µM (inactive) | > 100 µM (inactive) | > 100 µM (inactive) | > 100 µM (inactive) |  | > 100 µM (inactive) | > 100 µM (inactive) |  | > 100 µM (inactive) | > 100 µM (inactive) | > 100 µM (inactive) | > 100 µM (inactive) | > 100 µM (inactive) | > 100 µM (inactive) | > 100 µM (inactive) |  |  |  |  |
| Cc1ccc(NC(=O)CC/C(CC(=O)C(C)(C)C)=N/NC(=O)C(N)=O)cc1C | > 100 µM (inactive) | > 100 µM (inactive) | > 100 µM (inactive) | > 100 µM (inactive) | > 100 µM (inactive) | > 100 µM (inactive) | > 100 µM (inactive) | > 100 µM (inactive) | > 100 µM (inactive) | > 100 µM (inactive) | > 100 µM (inactive) | > 100 µM (inactive) | > 100 µM (inactive) | > 100 µM (inactive) | > 100 µM (inactive) | > 100 µM (inactive) |  |  |  |  |
